{
  "source": "paper PMC8508960",
  "about": "“Ruthenium Half-Sandwich Type Complexes with Bidentate Monosaccharide Ligands Show Antineoplastic Activity in Ovarian Cancer Cell Models through Reactive Oxygen Species Production” (International Journal of Molecular Sciences, 2021)",
  "key": {"[1]": {"test_system": "A2780 human ovarian carcinoma cells", "test": "SRB proliferation assay (48 h) on A2780 cells", "format": "cell-based", "conditions": "for cytostatic activity in long-term SRB assay (in words): A2780 cells, 100–0.0017 µM; for A2780 Hill Slope / IC50: SRB, nonlinear regression, N/A = could not be calculated/had no effect", "method": "(§1) Cells were cultured under standard cell culture conditions, 37 °C, 5% CO2, humidified atmosphere. A2780 cells were cultured in RMPI 1640 medium supplemented with 10% fetal calf serum, 2 mM glutamine, and 1% penicillin–streptomycin (Sigma-Aldrich). ID8 cells were cultured in high-glucose DMEM (4.5 g/L glucose) supplemented with 4% fetal calf serum, 2 mM glutamine, 1% penicillin–streptomycin (Sigma-Aldrich), and 1% ITS supplement (Sigma-Aldrich I3146). U251 cells were maintained in MEM (Sigma-Aldrich), 10% fetal bovine serum (Sigma-Aldrich), 1% penicillin/streptomycin (Invitrogene), and 2 mM glutamine. MCF7 cells were maintained in MEM (Sigma-Aldrich), 10% fetal bovine serum (Sigma-Aldrich), 1% penicillin/streptomycin (Invitrogen, Waltham, MA, USA), and 2 mM glutamine. Capan2 cells were maintained in MEM (Sigma-Aldrich), 10% fetal bovine serum (Sigma-Aldrich), 1% penicillin/streptomycin (Invitrogen), and 2 mM glutamine. Human primary dermal fibroblasts were cultured in low-glucose DMEM (1 g/L glucose) supplemented with 20% fetal calf serum, 2 mM glutamine, and 1% penicillin–streptomycin (Sigma-Aldrich).\n(§2) The SRB accumulation assay assesses protein content in a sample, and it was used to assess cell proliferation. The SRB accumulation assay was performed similarly to [68]. Cells were seeded in 96-well plates. The next day, cells were treated with the compounds for 48 h in the concentrations indicated in a cell incubator. At the end of treatment, cells were fixed with 10% trichloroacetic acid (TCA). Fixed cells were stained with SRB (0.4% m/v dissolved in 1% acetic acid) for 60 min. Fixed cells were washed in 1% acetic acid three times; acetic acid was removed, and cells were left to dry. Protein-bound SRB was released by adding 100 µL of 10 mM Tris base. Plates were measured in a plate photometer (Thermo Scientific Multiscan GO spectrophotometer, Waltham, MA, USA) at 540 nm. On each plate, wells were designed to contain untreated cells. In calculations, the readings for these wells were considered as 1, and all readings were expressed relative to these values.\n(§3) Statistical analysis was performed using Graphpad Prism version 8.0.1. Values were tested for normal distribution using the D’Agostino and Pearson normality test. When necessary, values were log-normalized or were normalized using the Box–Cox normalization method, as indicated in the figure captions. Nonlinear regression was performed using the built-in “[Inhibitor] vs. response—variable slope (four parameters), least square fit” utility of Graphpad that yielded IC50 and Hill slope values."}, "ID8 cells": {"test_system": "ID8 cells", "test": "SRB proliferation assay (48 h) on ID8 cells", "format": "cell-based", "conditions": "for ID8 Hill Slope / IC50: SRB, nonlinear regression, N/A = could not be calculated/had no effect; for cytostatic activity in long-term SRB assay (in words): ID8 cells", "method": "as §1, §2, §3"}, "[2]": {"test_system": "human primary skin fibroblasts", "test": "SRB proliferation assay (48 h) on primary fibroblasts", "format": "cell-based", "method": "as §1, §2, §3"}, "[3]": {"test_system": "A2780 human ovarian carcinoma cells", "test": "MTT reduction assay (4 h, rapid toxicity) on A2780 cells", "format": "cell-based", "method": "as §1\nThe MTT reduction assay assesses the activity of mitochondrial complex I, and it was used to assess rapid toxicity. The MTT reduction assay was performed similarly to [67]. Cells were seeded in 96-well plates. The next day, cells were treated with the compounds for 4 h in the concentrations indicated in a cell incubator. At the end of treatment, MTT was added in 0.5 mg/mL final concentration, and cells were incubated at 37 °C in a cell incubator. Then, culture media was removed, the reduced MTT dye was resolved in dimethyl sulfoxide (DMSO), and plates were measured in a plate photometer (Thermo Scientific Multiscan GO spectrophotometer, Waltham, MA, USA) at 540 nm. On each plate, wells were designed to contain untreated/vehicle-treated cells. In calculations, the readings for these wells were considered as 1, and all readings were expressed relative to these values."}, "A2780 cells": {"test_system": "A2780 cells", "test": "SRB assay on A2780 cells with or without 3 µM rucaparib", "format": "cell-based, human", "conditions": "48 h, 3 µM", "method": "as §2, §3"}, "[4]": {"conditions": "SRB, nonlinear regression, N/A = could not be calculated/had no effect"}},
  "note": "Where “and” joins values, the source holds several entries; their conditions need not be identical. Equal values may be shown once. Entries after “also recorded” stand apart in the source; their conditions may differ.",
  "data": [
    {"smiles": "CC(=O)OCC1OC(c2n[n+]3c(o2)-c2cccc[n+]2[Ru-]3[Cl])C(OC(C)=O)C(OC(C)=O)C1OC(C)=O.Cc1ccc(C(C)C)cc1.F[P-](F)(F)(F)(F)F", "note": "(mixture of isomers) [Ru-5]", "values": [
      {"measurement": "cytostatic activity in long-term SRB assay (in words)", "setting": "[1]", "value": "abrogated the inhibitory activity"}
    ]},
    {"smiles": "Cc1ccc(C(C)C)cc1.F[P-](F)(F)(F)(F)F.OCC1OC(c2nnc(-c3ccccn3)o2)C(O)C(O)C1O.[Cl][Ru+]", "note": "(mixture of isomers) [Ru-10]", "values": [
      {"measurement": "cytostatic activity in long-term SRB assay (in words)", "setting": "[1]", "value": "abrogated the inhibitory activity"}
    ]},
    {"smiles": "N.N.O=C([O-])C1(C(=O)[O-])CCC1.[Pt+2]", "note": "[Carboplatin, carboplatin, reference compound]", "values": [
      {"measurement": "A2780 Hill Slope", "setting": "[1]", "value": 1.02},
      {"measurement": "IC50", "setting": "[1]", "value": 28, "unit": "µM"},
      {"measurement": "ID8 Hill Slope", "setting": "ID8 cells", "value": 0.62},
      {"measurement": "effect in long-term SRB assay (in words)", "setting": "[2]; primary human fibroblasts", "value": "no effect"}
    ]},
    {"smiles": "N.N.[Cl][Pt][Cl]", "note": "[Cisplatin, cisplatin, reference compound]", "values": [
      {"measurement": "A2780 Hill Slope", "setting": "[1]", "value": 1.20},
      {"measurement": "IC50", "setting": "[1]", "value": 1.21, "unit": "µM"},
      {"measurement": "IC50", "setting": "ID8 cells", "value": 10.8, "unit": "µM"},
      {"measurement": "ID8 Hill Slope", "setting": "ID8 cells", "value": 0.99},
      {"measurement": "Fibroblast Hill Slope", "setting": "[2]; [4]", "value": 1.53},
      {"measurement": "IC50", "setting": "[2]; SRB, nonlinear regression, N/A = could not be calculated/had no effect, read-out: Fibroblast IC50", "value": 11.9, "unit": "µM"},
      {"measurement": "effect in SRB assay above 10 µM", "setting": "[2]; primary human fibroblasts, above 10 µM", "value": "cytostatic"}
    ]},
    {"smiles": "O=C(OC[C@H]1O[C@@H](n2cc(-c3ccccn3)nn2)[C@H](OC(=O)c2ccccc2)[C@@H](OC(=O)c2ccccc2)[C@@H]1OC(=O)c1ccccc1)c1ccccc1", "note": "[Complex L-2a, 1-(2′,3′,4′,6′-Tetra-O-benzoyl-β-D-glucopyranosyl)-4-(pyridin-2-yl)-1,2,3-triazole]", "values": [
      {"measurement": "cytostatic activity in long-term SRB assay (in words)", "setting": "[1]", "value": "no biological activity; also recorded: none of the corresponding ligands (L-2a, L-4, L-6, and L-8) had cytostatic properties"},
      {"measurement": "cytostatic activity in long-term SRB assay (in words)", "setting": "ID8 cells", "value": "none of the corresponding ligands (L-2a, L-4, L-6, and L-8) had cytostatic properties"},
      {"measurement": "effect in long-term SRB assay (in words)", "setting": "[2]; primary human fibroblasts", "value": "no effect"},
      {"measurement": "effect in short-term MTT assay, rapid toxicity (in words)", "setting": "[3]", "value": "no biological activity"}
    ]},
    {"smiles": "O=C(OC[C@H]1O[C@@H](c2nnc(-c3ccccn3)o2)[C@H](OC(=O)c2ccccc2)[C@@H](OC(=O)c2ccccc2)[C@@H]1OC(=O)c1ccccc1)c1ccccc1", "note": "[Complex L-4, 2-(2′,3′,4′,6′-Tetra-O-benzoyl-β-D-glucopyranosyl)-5-(pyridin-2-yl)-1,3,4-oxadiazole]", "values": [
      {"measurement": "cytostatic activity in long-term SRB assay (in words)", "setting": "[1]", "value": "no biological activity; also recorded: none of the corresponding ligands (L-2a, L-4, L-6, and L-8) had cytostatic properties"},
      {"measurement": "cytostatic activity in long-term SRB assay (in words)", "setting": "ID8 cells", "value": "none of the corresponding ligands (L-2a, L-4, L-6, and L-8) had cytostatic properties"},
      {"measurement": "effect in long-term SRB assay (in words)", "setting": "[2]; primary human fibroblasts", "value": "no effect"},
      {"measurement": "effect in short-term MTT assay, rapid toxicity (in words)", "setting": "[3]", "value": "no biological activity"}
    ]},
    {"smiles": "O=C(O[C@@H]1[C@@H](OC(=O)c2ccccc2)[C@H](c2nnc(-c3ccccn3)o2)OC[C@H]1OC(=O)c1ccccc1)c1ccccc1", "note": "[Complex L-6, 2-(2′,3′,4′-Tri-O-benzoyl-β-D-xylopyranosyl)-5-(pyridin-2-yl)-1,3,4-oxadiazole]", "values": [
      {"measurement": "cytostatic activity in long-term SRB assay (in words)", "setting": "[1]", "value": "no biological activity; also recorded: none of the corresponding ligands (L-2a, L-4, L-6, and L-8) had cytostatic properties"},
      {"measurement": "cytostatic activity in long-term SRB assay (in words)", "setting": "ID8 cells", "value": "none of the corresponding ligands (L-2a, L-4, L-6, and L-8) had cytostatic properties"},
      {"measurement": "effect in long-term SRB assay (in words)", "setting": "[2]; primary human fibroblasts", "value": "no effect"},
      {"measurement": "effect in short-term MTT assay, rapid toxicity (in words)", "setting": "[3]", "value": "no biological activity"}
    ]},
    {"smiles": "O=C(OC[C@H]1O[C@@H](c2nnc(-c3ccccn3)o2)[C@H](OC(=O)c2ccccc2)[C@@H](OC(=O)c2ccccc2)[C@H]1OC(=O)c1ccccc1)c1ccccc1", "note": "[Complex L-8, 2-(2′,3′,4′,6′-Tetra-O-benzoyl-β-D-galactopyranosyl)-5-(pyridin-2-yl)-1,3,4-oxadiazole]", "values": [
      {"measurement": "cytostatic activity in long-term SRB assay (in words)", "setting": "[1]", "value": "no biological activity; also recorded: none of the corresponding ligands (L-2a, L-4, L-6, and L-8) had cytostatic properties"},
      {"measurement": "cytostatic activity in long-term SRB assay (in words)", "setting": "ID8 cells", "value": "none of the corresponding ligands (L-2a, L-4, L-6, and L-8) had cytostatic properties"},
      {"measurement": "effect in long-term SRB assay (in words)", "setting": "[2]; primary human fibroblasts", "value": "no effect"},
      {"measurement": "effect in short-term MTT assay, rapid toxicity (in words)", "setting": "[3]", "value": "no biological activity"}
    ]},
    {"smiles": "c1ccc(-n2cc(-c3ccccn3)nn2)cc1", "note": "[Complex L-13, 1-phenyl-4-(pyridine-2-yl)-1,2,3-triazole]", "values": [
      {"measurement": "cytostatic activity in long-term SRB assay (in words)", "setting": "[1]", "value": "Neither of the free ligands, L-13 or L-14, had cytostatic activity"}
    ]},
    {"smiles": "c1ccc(-c2nnc(-c3ccccn3)o2)cc1", "note": "[Complex L-14, 2-phenyl-5-(pyridine-2-yl)-1,3,4-oxadiazole]", "values": [
      {"measurement": "cytostatic activity in long-term SRB assay (in words)", "setting": "[1]", "value": "Neither of the free ligands, L-13 or L-14, had cytostatic activity"}
    ]},
    {"smiles": "O=C1[O][Pt]2([NH][C@@H]3CCCC[C@H]3[NH]2)[O]C1=O", "note": "[Oxaliplatin, oxaliplatin, reference compound]", "values": [
      {"measurement": "A2780 Hill Slope", "setting": "[1]", "value": 1.27},
      {"measurement": "IC50", "setting": "[1]", "value": 0.12, "unit": "µM"},
      {"measurement": "IC50", "setting": "ID8 cells", "value": 4.59, "unit": "µM"},
      {"measurement": "ID8 Hill Slope", "setting": "ID8 cells", "value": 1.58},
      {"measurement": "Fibroblast Hill Slope", "setting": "[2]; [4]", "value": 0.37},
      {"measurement": "effect in long-term SRB assay (in words)", "setting": "[2]; primary human fibroblasts", "value": "no effect"}
    ]},
    {"smiles": "Cc1ccc(C(C)C)cc1.F[P-](F)(F)(F)(F)F.[Cl][Ru+].c1ccc(-n2cc(-c3ccccn3)nn2)cc1", "note": "[Ru-13]", "values": [
      {"measurement": "cytostatic activity in long-term SRB assay (in words)", "setting": "[1]", "value": "lowered the cytostatic capacity"},
      {"measurement": "A2780 Hill Slope", "setting": "[1]", "value": "1.5 and 1.57"},
      {"measurement": "IC50", "setting": "[1]", "value": 12, "unit": "µM"}
    ]},
    {"smiles": "Cc1ccc(C(C)C)cc1.F[P-](F)(F)(F)(F)F.[Cl][Ru+].c1ccc(-c2nnc(-c3ccccn3)o2)cc1", "note": "[Ru-14]", "values": [
      {"measurement": "cytostatic activity in long-term SRB assay (in words)", "setting": "[1]", "value": "no cytostatic activity; also recorded: fully abrogated it"},
      {"measurement": "A2780 Hill Slope", "setting": "[1]", "value": 0.77}
    ]},
    {"smiles": "CNCc1ccc(-c2[nH]c3cc(F)cc4c3c2CCNC4=O)cc1", "note": "[Rucaparib, rucaparib, reference compound]", "values": [
      {"measurement": "cell proliferation (in words)", "setting": "A2780 cells", "value": "reduced cell proliferation"}
    ]}
  ]
}
